Reference: publication PMC11249637, “Interaction of the Atypical Tetracyclines Chelocardin and Amidochelocardin with Renal Drug Transporters” (ACS Pharmacology & Translational Science, 2024)

Assays:
[1] = parameters: method as in PMID 339024; settings: phase II clinical trial, 1970s; cited from earlier work
[2] = target: T1, mOat1 (Mus musculus, UniProt Q8VC69); experiment: Three-point uptake (substrate assessment) in mOat1-overexpressing HEK293 cells; format: in vitro ADME; settings: 10 μM compound, 100 μM probenecid, 1 and 5 min
T1 construct: expressed in transfected cells; host or cells: HEK293
T1 sequence (Q8VC69 1-545): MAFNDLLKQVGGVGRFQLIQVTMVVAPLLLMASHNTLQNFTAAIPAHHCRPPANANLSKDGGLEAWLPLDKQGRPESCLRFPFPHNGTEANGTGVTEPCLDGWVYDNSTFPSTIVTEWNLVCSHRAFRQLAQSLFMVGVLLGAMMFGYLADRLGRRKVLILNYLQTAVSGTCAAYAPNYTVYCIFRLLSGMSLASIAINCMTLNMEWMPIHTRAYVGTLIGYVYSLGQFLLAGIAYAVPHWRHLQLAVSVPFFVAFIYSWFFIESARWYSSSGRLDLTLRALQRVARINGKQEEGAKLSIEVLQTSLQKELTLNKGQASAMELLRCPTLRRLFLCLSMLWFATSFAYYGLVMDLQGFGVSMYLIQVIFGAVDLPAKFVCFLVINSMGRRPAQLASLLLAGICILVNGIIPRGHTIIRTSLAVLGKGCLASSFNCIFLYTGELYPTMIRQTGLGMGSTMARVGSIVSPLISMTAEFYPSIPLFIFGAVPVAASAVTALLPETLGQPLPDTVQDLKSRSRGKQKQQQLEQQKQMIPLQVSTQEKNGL
Experimental: This is important to gain a better understanding of the underlying mechanisms of secretion into urine. Therefore, we assessed the amount of compound taken up by the vector and transporter cells at three different concentrations (1, 10, and 100 μM for mOat1 and mOct1; 0.1, 1, and 10 μM for mOat3) and at two different incubation periods (1 and 5 min for mOat1 and mOct1; 5 and 10 min for mOat3).
The incubation buffer contained CHD and CDCHD in a final concentration of 1, 10, and 100 μM. After 1 and 5 min, the incubation was terminated. In addition, the probe inhibitor probenecid (100 μM) was added in one concentration to 10 μM CHD and CDCHD, respectively, and after 1 and 5 min, the incubation was stopped. Inhibition of mOat1-mediated ^3H-PAH (10 μM) uptake by 100 μM probenecid was performed as a control experiment. After 1 min, the incubation was terminated. […]
First, a calibration curve was prepared by spiking different concentrations of CHD and CDCHD into the cell matrix. […] Samples were analyzed using an Agilent 1290 Infinity II HPLC system coupled to an AB Sciex QTrap6500plus mass spectrometer. […]
For statistical testing of differences in uptake ratio or for the inhibitory effect, an ordinary one-way ANOVA test was performed using GraphPad Prism 9.5.1 software. […] Michaelis–Menten kinetics were determined using the Michaelis–Menten algorithm of GraphPad Prism 9.5.1 software. […]

SMILES: CC(=O)C1=C(O)[C@@H](N)[C@H]2Cc3c(c(O)c4c(O)c(C)ccc4c3C)C(=O)[C@@]2(O)C1=O [CHD, chelocardin]
- concentrations in urine [1]: 11000 to 14000 ng/mL
- plasma concentrations [1]: 1000 to 3000 ng/mL
- uptake ratio (cells without vs with probenecid), mOat1 [2]: < 1
